Assays:
[1] = test system: Wnt/β-catenin pathway in hippocampal neurons; assay: Wnt/β-catenin pathway activation in cultured hippocampal neurons (western blot, immunofluorescence); format: cell-based, rat
Procedure: Primary culture of rat hippocampal neurons. Rat hippocampal cultures were prepared as previously described (Arrazola et al, 2009). On day 3 of culture, hippocampal cells were treated with […] 1-b-Darabinofuranosylcytosine (AraC) during 24 h to reduce the number of proliferating non-neuronal cells. […] PCR-ARRAY. RNA from hippocampal neurons was extracted using Trizol. Quantification and purity of RNA preparations were checked by absorbance using Nanodrop ND-2000. Only preparations with a 260/280 nm ratio≥1.8, a 260/230 nm ratio ≥1,7 and no sign of RNA degradations, verified by agarose gel electrophoresis with Gel Red TM were used. Genomic DNA was degraded. Using RT2First-Strand cDNA Synthesis kit (SuperArray), 1 μg total RNA was reverse transcribed and then real-time PCR was performed by adding cDNA directly to PCR Master Mix, containing SYBR Green and ROX. The mixtures were then aliquoted into a 96-well PCR array plates, which profiles the expression of 84 Wnt target genes from rat. The PCR was run on ABI StepOnePlus, with 1 cycle of 10 min at 95° C. followed by 40 cycles of 15 s at 95° C. and 1 min at 60° C. Cycle threshold (Ct) values were calculated for all the genes present on the array (Schmittgen & Livak, 2008).
Treatment of neuronal cultures. Primary hippocampal cultures of neurons 14 DIV were washed twice in neurobasal medium and maintained for 1 hour.
Nuclear and cytoplasmatic extraction. Following a time-course treatment, neurons were washed with cold PBS and harvested in 600 μL of cold homogenization buffer (10 mM HEPES pH 7,9; 1,5 mM MgCl2; 10 mM KCl; 1 mM DTT). The cells were disrupted by 20 passed, back and forth, through a syringe of 1 mL. Lysates were centrifuged for 6 minutes at 700 g at 4° C. and the supernatant was removed. The precipitate was washed in 100 μL of buffer (20 mM HEPES pH=7,9; 420 mM NaCl; 1,5 mM MgCl2; 0,2 mM EDTA; 1 mM DTT; 25% glicerol) and centrifuged again to generate nuclear fraction. Cytosolic fractions were generated from the supernatantat 100.000 g for 1 h at 4° C. Both buffers were supplemented with protease inhibitors and serine-phosphatase. Nuclear and cytosolic fractions were subsequently subjected to western blotting.
(§1) Immunoblotting. The samples were dissected on ice and immediately frozen in liquid nitrogen or processed has previously detailed (Inestrosa et al, 2011). Briefly, tissues were homogenized in RIPA buffer (10 mM Tris-Cl, pH 7.4, EDTA 5 mM, 1% NP-40, 1% sodium deoxycholate, and 1% SDS) supplemented with a protease inhibitor mixture (1 mM PMSF, 2 μg/mL aprotinin, 1 μg/mL pepstatin and 10 μg/mL benzamidine) and phosphatase inhibitors (25 mMNaF, 100 mM Na3VO4, 1 mM EDTA and 30 μM Na4P207) using a Potter homogenizator and then passed sequentially through different caliber syringes. Protein samples were centrifuged at 14000 rpm at 4° C. twice for 15 min. Protein concentration was determined using the BCA Protein Assay Kit (Pierce). Samples were resolved by 12% SDS-PAGE were resolved by 10% SDS-PAGE and transferred to a PVDF membrane. The reactions were followed by incubation with anti-mouse, anti-goat or anti-rabbit IgG peroxidase conjugated (Pierce, Rockford, Ill.) and developed using an ECL kit (Western Lightning Plus ECL, PerkinElmer).
Immunofluorescence. Hippocampal neurons were seeded onto poly-L-lysine-coated cover slips in 24-well culture plates at a density of 5×10^4 cellsper well, as described previously (Arrazola et al, 2009; Chacon et al, 2008). A mouse monoclonal anti-b-catenin was used. Cells were extensively washed with PBS and then incubated with Alexa 488-conjugated anti-mouse IgG for 1 h at room temperature. Cells were mounted in mounting medium and analyzed in a Carl-Zeiss Confocal Laser Microscope.

[2] = test system: Wnt/β-catenin pathway in hippocampal slices; assay: β-catenin, GSK-3β and Dvl-3 western blot in hippocampal slices of wild-type mice; format: cell-based
Procedure: Slice preparation. […] Transverse slices (250-300 μm) from the dorsal hippocampus were cut under oxygen-saturated cold artificial cerebrospinal fluid using a Vibroslice microtome (VSL, World Precision Instruments, Inc WPI, Sarasota, Fla.). After obtained, slices were incubated in ACSF for at least than one hour at room temperature, in order to stabilize activity.
as §1, with “The samples were dissected on ice and immediately frozen in liquid nitrogen or processed has previously detailed (Inestrosa et al, 2011).” left out, “Protein samples were centrifuged at 14000 rpm at 4° C. twice for 15 min.” left out, “Samples were resolved by 12% SDS-PAGE were resolved by 10% SDS-PAGE and transferred to a PVDF membrane.” left out

[3] = test system: Aβ oligomers in the hippocampus of APPswe/PS-1 mice; assay: Slot blot of Aβ oligomers with A11 antibody; format: in vivo
[4] = different concentrations for 6 h, 14 DIV neurons

Structure (SMILES): C=C1CC[C@@H]2C(C)(CO)[C@H](O)CC[C@@]2(C)C1C/C=C1/C(=O)OC[C@H]1O (stereo in doubt) [ANDRO, 3-(2-(Decahydro-6-hydroxy-5-(hydroxymethyl)-5,8a-dimethyl-2-methylenenaphthyl)ethylidene)dihydro-4-hydroxyfuran-2(3H)-one]
- β-catenin levels by immunofluorescence ([1]; 5 μM for 6 h, 14 DIV neurons): increased β-catenin levels
- time of peak accumulation of cytoplasmic and nuclear β-catenin ([1]; ANDRO 10 μM time course): 9 h
- time of maximum increase of the inhibited form of GSK-3β ([1]; ANDRO 10 μM time course, cytoplasmic fraction): 6 h
- accumulation of β-catenin (western blot) [1, 4]: accumulation of β-catenin in a concentration-dependent manner
- active form of GSK-3β (phosphor-Tyr-216) [1, 4]: decrease in the active form
- inhibited form of GSK-3β (phospho-Ser-9) [1, 4]: increase in the inhibited form of the enzyme
- time at which total levels of β-catenin increased ([2]; 5 μM ANDRO, Wnt3a conditioned medium or 10 nM 6-BIO, up to 1 h): 15 min
- rate of increase of GSK3β Ser-9 and decrease of Tyr-216 phosphorylation ([2]; compared to Wnt-3a treatment): faster
- mobility shift (phosphorylation) of Dvl-3 ([2]; hippocampal slices, 1 h): does not induce a mobility shift of Dvl-3
- level of Aβ oligomers (A11 slot-blot) ([3]; 7 month-old APPswe/PS-1 mice): did not show significant changes
- levels of Aβ-oligomers (A11 slot blot) ([3]; FIG. 3G (old APPswe/PS-1 mice per legend)): did not show significant changes

From US20220409573A1, “Hippocampus Regeneration And Memory Recovery” (INNOBIOSCIENCE, LLC, priority 2021, published 2022)
